# According to patent publication US7179831B2, “5-[3-(4-benzyloxyphenylthio)-fur-2-yl]-imidazolidin-2, 4-dione and analogues as inhibitors of macrophage elastase” (Quest Pharmaceutical Services, priority 2004, dated 2007):
# Experiments:
# Format in all cases: biochemical
# Details in all cases: recombinant human active domain, substrate 4 uM, room temperature
# MMP-1 = target: T1, MMP-1 (Homo sapiens, UniProt P03956); test: MMP inhibitory assay, fluorescent substrate, MMP-1
# T1 construct: All the enzymes are recombinant human active domains from E. coli (Biomol); purchased Biomol; host or cells: E. coli
# T1 sequence (P03956 100-269 limits assumed): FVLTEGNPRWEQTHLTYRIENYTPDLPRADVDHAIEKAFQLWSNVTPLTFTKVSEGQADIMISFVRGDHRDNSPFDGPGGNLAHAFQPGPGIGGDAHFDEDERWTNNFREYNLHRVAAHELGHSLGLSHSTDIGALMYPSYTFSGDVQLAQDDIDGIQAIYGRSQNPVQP
# Experimental: (§1) The enzymatic activities of MMPs were assayed according to manufacture protocols (Biomol Reseaerch Laboratory, Inc. E-mail: info@biomol.com). All the enzymes are recombinant human active domains from E. coli (Biomol). The fluorescent substrate has the sequence of (7-methoxycoumarin-4-yl) acetyl-Pro-Leu-Gly-Leu-N-3-(2,4-dinitrophenyl)-L-α,β-diaminopropionyl-Ala-Arg-NH2.AcOH. All the assays were conducted at room temperature with 96 well flat bottom black plate (Nalge Nunc International, Catalog number, 465200). Briefly, certain amount of enzyme in 89 ul of assay buffer (50 mM Hepes, 10 mM CaCl2, 0.05% Brij 35, pH 7.5) was incubated with (7 concentration per set) or without inhibitor (in 1 ul of DMSO, or 1 ul DMSO only) for 20 min. Then the enzymatic reaction was initiated by the addition of the substrate (40 uM in 10 ul of assay buffer and the final concentration of the substrate is 4 uM). The activity was determined by measuring the fluorescence at Ex/Em=328 nm/393 nm and it was linear within 2 hrs. The fluorescence was read at 0 and 20 or 40 min. The reading at 0 time would be considered as the background and subtracted from the final reading. The IC50 was obtained by plotting the fluorescences versus the concentrations of the inhibitors of each assay with Prism software. […] Mechanism studies reveal that the inhibitors are competitive. For competitive inhibitor: Ki=IC50/(1+[S]/Km)
# MMP-2 = target: T2, MMP-2 (Homo sapiens, UniProt P08253); test: MMP inhibitory assay, fluorescent substrate, MMP-2
# T2 construct: All the enzymes are recombinant human active domains from E. coli (Biomol); purchased Biomol; host or cells: E. coli
# Experimental: as §1
# MMP-3 = target: T3, MMP-3 (Homo sapiens, UniProt P08254); test: MMP inhibitory assay, fluorescent substrate, MMP-3
# T3 construct: All the enzymes are recombinant human active domains from E. coli (Biomol); purchased Biomol; host or cells: E. coli
# Experimental: as §1
# MMP-7 = target: T4, MMP-7 (Homo sapiens, UniProt P09237); test: MMP inhibitory assay, fluorescent substrate, MMP-7
# T4 construct: All the enzymes are recombinant human active domains from E. coli (Biomol); purchased Biomol; host or cells: E. coli
# T4 sequence (P09237 95-267): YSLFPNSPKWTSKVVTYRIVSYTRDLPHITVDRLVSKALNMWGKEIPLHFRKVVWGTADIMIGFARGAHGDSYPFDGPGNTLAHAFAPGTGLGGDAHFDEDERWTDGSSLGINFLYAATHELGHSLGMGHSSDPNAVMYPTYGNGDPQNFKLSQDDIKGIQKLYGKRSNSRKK
# Experimental: as §1
# MMP-12 = target: T5, MMP-12 (Homo sapiens, UniProt P39900); test: MMP inhibitory assay, fluorescent substrate, MMP-12
# T5 construct: All the enzymes are recombinant human active domains from E. coli (Biomol); purchased Biomol; host or cells: E. coli
# Experimental: as §1
# In the assay conditions, [S](4 uM) is smaller than Km (20 uM for MMP-12). So Ki equal to IC50/1.2, which is little smaller than IC50, or roughly equal to IC50.
# MMP-13 = target: T6, MMP-13 (Homo sapiens, UniProt P45452); test: MMP inhibitory assay, fluorescent substrate, MMP-13
# T6 construct: All the enzymes are recombinant human active domains from E. coli (Biomol); purchased Biomol; host or cells: E. coli
# Experimental: as §1
# MMP-9 = target: T7, MMP-9 (Homo sapiens, UniProt P14780); test: MMP inhibitory assay, fluorescent substrate, MMP-9
# T7 construct: All the enzymes are recombinant human active domains from E. coli (Biomol); purchased Biomol; host or cells: E. coli
# Experimental: as §1
# T2 sequence (P08253 110-446 limits assumed): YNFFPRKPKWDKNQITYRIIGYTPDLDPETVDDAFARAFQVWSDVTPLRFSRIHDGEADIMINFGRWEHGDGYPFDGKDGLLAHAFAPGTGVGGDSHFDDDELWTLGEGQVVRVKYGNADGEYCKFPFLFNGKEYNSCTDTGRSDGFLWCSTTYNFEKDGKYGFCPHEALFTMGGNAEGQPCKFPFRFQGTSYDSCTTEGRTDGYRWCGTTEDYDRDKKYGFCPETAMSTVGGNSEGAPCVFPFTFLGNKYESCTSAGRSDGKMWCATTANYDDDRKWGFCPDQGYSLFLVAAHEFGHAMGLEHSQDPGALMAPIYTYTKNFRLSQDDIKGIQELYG
# T7 sequence (P14780 107-444 limits assumed): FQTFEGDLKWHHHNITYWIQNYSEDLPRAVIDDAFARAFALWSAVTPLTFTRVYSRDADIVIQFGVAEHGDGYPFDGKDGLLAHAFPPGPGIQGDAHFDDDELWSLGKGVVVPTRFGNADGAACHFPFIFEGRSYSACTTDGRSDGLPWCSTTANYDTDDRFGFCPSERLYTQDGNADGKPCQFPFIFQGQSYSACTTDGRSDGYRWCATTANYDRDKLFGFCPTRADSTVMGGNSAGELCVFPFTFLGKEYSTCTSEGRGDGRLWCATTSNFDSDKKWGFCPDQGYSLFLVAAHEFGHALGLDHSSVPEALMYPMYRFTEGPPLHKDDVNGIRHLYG
# T5 sequence (P39900 106-263 limits assumed): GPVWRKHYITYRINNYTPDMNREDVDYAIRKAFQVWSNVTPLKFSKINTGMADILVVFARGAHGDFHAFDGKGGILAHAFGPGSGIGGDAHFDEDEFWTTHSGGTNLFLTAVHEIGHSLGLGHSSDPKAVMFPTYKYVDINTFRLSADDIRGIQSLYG
# T3 sequence (P08254 100-272 limits assumed): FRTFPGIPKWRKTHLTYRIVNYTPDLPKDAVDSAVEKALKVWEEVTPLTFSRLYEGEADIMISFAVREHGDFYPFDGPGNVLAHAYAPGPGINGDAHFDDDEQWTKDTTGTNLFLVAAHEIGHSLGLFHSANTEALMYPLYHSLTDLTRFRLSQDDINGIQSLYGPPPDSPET
IC50 (MMP-1) [nM],IC50 (MMP-2) [nM],IC50 (MMP-3) [nM],IC50 (MMP-7) [nM],IC50 (MMP-12) [nM],IC50 (MMP-13) [nM],IC50 (MMP-9) [nM],Compound
> 40000,447,2100,63700,13,1070,727,"O=C1NC(=O)C(c2occc2Sc2ccc(OCc3ccccc3)cc2)N1 (stereo not drawn) [IVa, 5-[3-(4-Benzoxyphenylthio)fur-2-yl]imidazoline-2,4-dione]"
> 40000,1180,383,1880,84,335,4470,"O=C1NC(=O)C(c2occc2Sc2ccc(OCc3ccc(OCc4ccccc4)cc3)cc2)N1 (stereo not drawn) [IVb, 5-{3-[4-(4-Benzyloxybenzyloxy)phenylthio]fur-2-yl}imidazolidine-2,4-dione]"
> 40000,1740,35900,1040,131,707,–,"O=C1NC(=O)C(c2occc2Sc2ccc(OCc3ccc(-c4ccccc4)cc3)cc2)N1 (stereo not drawn) [IVc, 5-{3-[4-(4-biphenylmethoxy)phenylthio]fur-2-yl}imidazoline-2,4-dione]"
> 40000,422,318,7600,10,260,740,"COc1ccc(COc2ccc(Sc3ccoc3C3NC(=O)NC3=O)cc2)cc1 (stereo not drawn) [IVd, 5-{3-[4-(4-Methoxybenzyloxy)phenylthio]fur-2-yl}imidazolidine-2,4-dione]"
> 40000,2010,3620,27400,19,2440,3760,"COc1cccc(COc2ccc(Sc3ccoc3C3NC(=O)NC3=O)cc2)c1 (stereo not drawn) [IVe, 5-{3-[4-(3-Methoxybenzyloxy)phenylthio]fur-2-yl}imidazolidine-2,4-dione]"
> 40000,233000,–,–,202,11600,30400,"COc1ccccc1COc1ccc(Sc2ccoc2C2NC(=O)NC2=O)cc1 (stereo not drawn) [IVf, 5-{3-[4-(2-Methoxybenzyloxy)phenylthio]fur-2-yl}imidazolidine-2,4-dione]"
> 40000,–,7950,–,264,16800,35800,"COc1cc(COc2ccc(Sc3ccoc3C3NC(=O)NC3=O)cc2)cc(OC)c1 (stereo not drawn) [IVg, 5-{3-[4-(3,5-dimethoxybenzoxy)phenylthio]fur-2yl}imidazoline-2,4-dione]"
> 40000,235,157,7450,7,329,255,"O=C1NC(=O)C(c2occc2Sc2ccc(OCc3ccc(Cl)cc3)cc2)N1 (stereo not drawn) [IVh, 5-{3-[4-(4-Chlorobenzyloxy)phenylthio]fur-2-yl}imidazolidine-2,4-dione]"
> 40000,1020,298,676000,22,773,1440,"O=C1NC(=O)C(c2occc2Sc2ccc(OCc3cccc(Cl)c3)cc2)N1 (stereo not drawn) [IVi, 5-{3-[4-(3-Chlorobenzyloxy)phenylthio]fur-2-yl}imidazolidine-2,4-dione]"
> 40000,1840,1090,–,57,2410,1130,"O=C1NC(=O)C(c2occc2Sc2ccc(OCc3ccccc3Cl)cc2)N1 (stereo not drawn) [IVj, 5-{3-[4-(2-Chlorobenzyloxy)phenylthio]fur-2-yl}imidazolidine-2,4-dione]"
> 40000,612,586,30900,15,643,472,"Cc1ccc(COc2ccc(Sc3ccoc3C3NC(=O)NC3=O)cc2)cc1 (stereo not drawn) [IVk, 5-{3-[4-(4-Methylbenzyloxy)phenylthio]fur-2-yl}imidazolidine-2,4-dione]"
> 40000,1110,1350,46700,11,1950,2950,"Cc1cccc(COc2ccc(Sc3ccoc3C3NC(=O)NC3=O)cc2)c1 (stereo not drawn) [IVo, 5-{3-[4-(3-Methyl-benzyloxy)phenylthio]fur-2-yl}imidazolidine-2,4-dione]"
> 40000,7030,4040,–,42,4260,2080,"Cc1ccccc1COc1ccc(Sc2ccoc2C2NC(=O)NC2=O)cc1 (stereo not drawn) [IVp, 5-{3-[4-(2-Methyl-benzyloxy)phenylthio]fur-2-yl}imidazolidine-2,4-dione]"
> 40000,2130,3310,–,34,2060,2880,"O=C1NC(=O)C(c2occc2Sc2ccc(OCc3cccc(C(F)(F)F)c3)cc2)N1 (stereo not drawn) [IVq, 5-{3-[4-(3-Trifluoromethyl-benzyloxy)phenylthio]fur-2yl}imidazolidine-2,4-dione]"
